# Measurements as given in patent US11673890B2, “N1-pyrazolospiroketone acetyl-CoA carboxylase inhibitors” (Pfizer Inc., priority 2010, dated 2023).
# pIC50: −log10 of the molar value.
# What was measured:
# [1] = molecular target: T1, recombinant human ACC1 (rhACC1) (Homo sapiens, UniProt Q13085, DEL44-44); assay: recombinant hACC1 Transcreener assay (ADP detection FP); assay type: biochemical; conditions: recombinant hACC1 Transcreener assay, 50 μM ATP, minimum of n=3; read-out: hACC1
# T1 construct: infected with recombinant baculovirus containing full length human ACC1 cDNA; made in house; host or cells: SF9 insect cells (baculovirus)
# Protocol: For example direct inhibition of ACC activity, for the compound of Formula (1) was determined using preparations of recombinant human ACC1 (rhACC1) and recombinant human ACC2 (rhACC2).
# [1] Preparation of rhACC1. Two liters of SF9 cells, infected with recombinant baculovirus containing full length human ACC1 cDNA, were suspended in ice-cold lysis buffer (25 mM Tris, pH 7.5; 150 mM NaCl; 10% glycerol; 5 mM imidazole (EMD Bioscience; Gibbstown, N.J.); 2 mM TCEP (BioVectra; Charlottetown, Canada); Benzonase nuclease (10000 U/100 g cell paste; Novagen; Madison, Wis.); EDTA-free protease inhibitor cocktail (1 tab/50 mL; Roche Diagnostics; Mannheim, Germany). Cells were lysed by 3 cycles of freeze-thaw and centrifuged at 40,000×g for 40 minutes (4° C.). Supernatant was directly loaded onto a HisTrap FF crude column (GE Healthcare; Piscataway, N.J.) and eluted with an imidazole gradient up to 0.5 M over 20 column volumes (CV). ACC1-containing fractions were pooled and diluted 1:5 with 25 mM Tris, pH 7.5, 2 mM TCEP, 10% glycerol and direct loaded onto a CaptoQ (GE Healthcare) column and eluted with an NaCl gradient up to 1 M over 20 CV's. Phosphate groups were removed from purified ACC1 by incubation with lambda phosphatase (100 U/10 μM target protein; New England Biolabs; Beverly, Mass.) for 14 hours at 4° C.; okadaic acid was added (1 μM final concentration; Roche Diagnostics) to inhibit the phosphatase. Purified ACC1 was exchanged into 25 mM Tris, pH 7.5, 2 mM TCEP, 10% glycerol, 0.5 M NaCl by 6 hour dialysis at 4° C. Aliquots were prepared and frozen at −80° C.
# [2] […] The final conditions for the assay were 50 mM HEPES, pH 7.2, 10 mM MgCl2, 7.5 mM tripotassium citrate, 2 mM DTT, 0.1 mg/mL BSA, 30 μM acetyl-CoA, 50 μM ATP, and 10 mM KHCO3. Typically, a 10 μl reaction was run for 120 min at 25° C., and 10 μl of Transcreener stop and detect buffer was added and the combination incubated at room temp for an additional 1 hour.
# All of the examples in both assays were run with a minimum of n=3.
# [2] = molecular target: T2, recombinant human ACC2 (rhACC2) (Homo sapiens, UniProt O00763, V2141I); assay: recombinant hACC2 Transcreener assay (ADP detection FP); assay type: biochemical; conditions: 50 μM ATP, minimum of n=3
# T2 construct: a full length Cytomax clone of ACC2 was purchased from Cambridge Bioscience Limited; made in house; host or cells: CHO cells (tetracycline-inducible, pcDNA5 FRT TO-TOPO)
# Protocol: For example direct inhibition of ACC activity, for the compound of Formula (1) was determined using preparations of recombinant human ACC1 (rhACC1) and recombinant human ACC2 (rhACC2). Representative sequences of the recombinant human ACC1 and ACC2 that can be used in the assay are provided in FIG. 1 (SEQ ID NO. 1) and FIG. 2 (SEQ. ID NO. 2), respectively.
# [3] Preparation of rhACC2. Human ACC2 inhibition was measured using purified recombinant human ACC2 (hrACC2). Briefly, a full length Cytomax clone of ACC2 was purchased from Cambridge Bioscience Limited and was sequenced and subcloned into PCDNA5 FRT TO-TOPO (Invitrogen, Carlsbad, Calif.). The ACC2 was expressed in CHO cells by tetracycline induction and harvested in 5 liters of DMEM/F12 with glutamine, biotin, hygromycin and blasticidin with 1 μg/mL tetracycline (Invitrogen, Carlsbad, Calif.). The conditioned medium containing ACC2 was then applied to a Softlink Soft Release Avidin column (Promega, Madison, Wis.) and eluted with 5 mM biotin. 4 mgs of ACC2 were eluted at a concentration of 0.05 mg/mL (determined by A280) with an estimated purity of 95% ([…]). The purified ACC2 was dialyzed in 50 mM Tris, 200 mM NaCl, 4 mM DTT, 2 mM EDTA, and 5% glycerol. The pooled protein was frozen and stored at −80° C., with no loss of activity upon thawing. For measurement of ACC2 activity and assessment of ACC2 inhibition, test compounds were dissolved in DMSO and added to the rhACC2 enzyme as a 5× stock with a final DMSO concentration of 1%.
# [4] Measurement of human ACC2 inhibition. hACC2 was assayed in a Costar #3676 (Costar, Cambridge, Mass.) 384-well plate using the Transcreener ADP detection FP assay kit (Bellbrook Labs, Madison, Wis.) using the manufacturer's recommended conditions for a 50 uM ATP reaction. The final conditions for the assay were 50 mM HEPES, pH 7.2, 5 mM MgCl2, 5 mM tripotassium citrate, 2 mM DTT, 0.1 mg/mL BSA, 30 μM acetyl-CoA, 50 μM ATP, and 8 mM KHCO3. Typically, a 10 μl reaction was run for 50 min at 25° C., and 10 μl of Transcreener stop and detect buffer was added and the combination incubated at room temp for an additional 1 hour. The data was acquired on an Envision Fluorescence reader (Perkinelmer) using a 620 excitation Cy5 FP general dual mirror, 620 excitation Cy5 FP filter, 688 emission (S) and a 688 (P) emission filter.
# The results using the recombinant hACC1 and recombinant hACC2 Transcreener assays described above are summarized in the table below for the Compounds of Formula (I) exemplified in the Examples above. All of the examples in both assays were run with a minimum of n=3.
# T2 sequence (O00763 whole entry V2141I): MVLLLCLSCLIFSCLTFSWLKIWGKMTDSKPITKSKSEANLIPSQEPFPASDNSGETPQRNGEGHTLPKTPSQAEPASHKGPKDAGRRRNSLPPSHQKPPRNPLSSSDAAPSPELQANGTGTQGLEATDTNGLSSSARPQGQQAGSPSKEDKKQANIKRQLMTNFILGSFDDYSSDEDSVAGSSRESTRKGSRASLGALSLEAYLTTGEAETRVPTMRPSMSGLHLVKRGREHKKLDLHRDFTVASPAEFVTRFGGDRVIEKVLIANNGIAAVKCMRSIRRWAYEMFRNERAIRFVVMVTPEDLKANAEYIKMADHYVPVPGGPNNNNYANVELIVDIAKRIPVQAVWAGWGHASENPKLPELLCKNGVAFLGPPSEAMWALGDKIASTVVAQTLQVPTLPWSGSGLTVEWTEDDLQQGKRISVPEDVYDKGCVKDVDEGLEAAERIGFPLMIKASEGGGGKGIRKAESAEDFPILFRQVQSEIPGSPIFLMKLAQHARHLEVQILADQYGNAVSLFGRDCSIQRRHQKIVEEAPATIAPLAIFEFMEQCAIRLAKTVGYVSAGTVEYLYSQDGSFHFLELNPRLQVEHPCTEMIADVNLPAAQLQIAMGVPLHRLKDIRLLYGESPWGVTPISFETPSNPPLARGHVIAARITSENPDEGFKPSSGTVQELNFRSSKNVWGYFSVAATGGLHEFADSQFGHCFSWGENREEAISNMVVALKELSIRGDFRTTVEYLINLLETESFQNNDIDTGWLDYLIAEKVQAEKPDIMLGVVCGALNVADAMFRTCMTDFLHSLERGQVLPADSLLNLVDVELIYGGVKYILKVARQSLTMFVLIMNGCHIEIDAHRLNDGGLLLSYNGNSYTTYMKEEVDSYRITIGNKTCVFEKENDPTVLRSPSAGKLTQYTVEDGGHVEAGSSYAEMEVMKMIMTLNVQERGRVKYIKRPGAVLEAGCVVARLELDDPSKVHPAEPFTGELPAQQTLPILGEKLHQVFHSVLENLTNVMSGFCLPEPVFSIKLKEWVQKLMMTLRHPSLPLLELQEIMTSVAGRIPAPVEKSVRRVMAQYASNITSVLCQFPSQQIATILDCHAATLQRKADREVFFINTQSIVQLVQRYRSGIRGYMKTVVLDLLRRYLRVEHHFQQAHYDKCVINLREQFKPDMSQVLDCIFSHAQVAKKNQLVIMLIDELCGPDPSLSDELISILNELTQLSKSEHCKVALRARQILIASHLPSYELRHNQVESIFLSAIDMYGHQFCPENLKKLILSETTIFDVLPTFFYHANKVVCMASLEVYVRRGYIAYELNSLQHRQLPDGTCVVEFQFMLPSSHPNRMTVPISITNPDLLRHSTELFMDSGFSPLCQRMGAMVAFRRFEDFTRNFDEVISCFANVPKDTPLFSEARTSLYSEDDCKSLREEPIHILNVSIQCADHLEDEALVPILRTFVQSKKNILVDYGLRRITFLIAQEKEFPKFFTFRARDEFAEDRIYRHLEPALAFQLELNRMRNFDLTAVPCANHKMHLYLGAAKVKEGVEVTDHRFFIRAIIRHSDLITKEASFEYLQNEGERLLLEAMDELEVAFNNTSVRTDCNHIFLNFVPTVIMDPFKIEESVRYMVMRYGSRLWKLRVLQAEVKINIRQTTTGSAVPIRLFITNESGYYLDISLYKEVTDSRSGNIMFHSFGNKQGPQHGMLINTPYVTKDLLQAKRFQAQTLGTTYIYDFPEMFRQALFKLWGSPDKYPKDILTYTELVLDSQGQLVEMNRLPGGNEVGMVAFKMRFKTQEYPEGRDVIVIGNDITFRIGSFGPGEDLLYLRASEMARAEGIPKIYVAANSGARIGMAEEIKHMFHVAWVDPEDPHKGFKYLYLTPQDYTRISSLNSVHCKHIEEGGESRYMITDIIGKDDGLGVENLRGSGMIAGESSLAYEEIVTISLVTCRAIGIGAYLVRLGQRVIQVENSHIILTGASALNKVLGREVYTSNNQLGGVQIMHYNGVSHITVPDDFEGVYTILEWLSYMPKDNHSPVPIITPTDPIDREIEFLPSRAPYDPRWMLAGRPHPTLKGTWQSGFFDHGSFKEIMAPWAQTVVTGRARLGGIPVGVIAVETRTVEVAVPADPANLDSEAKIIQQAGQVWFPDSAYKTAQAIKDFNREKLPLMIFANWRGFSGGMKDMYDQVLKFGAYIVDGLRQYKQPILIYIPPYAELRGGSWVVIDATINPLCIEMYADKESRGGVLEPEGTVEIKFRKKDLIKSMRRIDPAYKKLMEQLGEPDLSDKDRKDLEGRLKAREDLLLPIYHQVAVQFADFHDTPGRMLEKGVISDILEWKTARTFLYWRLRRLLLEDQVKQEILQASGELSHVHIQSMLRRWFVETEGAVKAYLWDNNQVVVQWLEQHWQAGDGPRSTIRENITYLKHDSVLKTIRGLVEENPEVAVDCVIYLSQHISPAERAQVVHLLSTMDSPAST
Structure (SMILES),pIC50 [1],pIC50 [2]
"CC(C)n1ncc2c1C(=O)CC1(CCN(C(=O)c3cc4c(-c5cccc(C(=O)O)c5)nccc4[nH]3)CC1)C2 [Example 35, 3-{2-[(1-isopropyl-7-oxo-1,4,6,7-tetrahydro-1′H-spiro[indazole-5,4′-piperidin]-1′-yl)carbonyl]-1H-pyrrolo[3,2-c]pyridin-4-yl}benzoic acid]",7.49,7.90
"CC(C)n1ncc2c1C(=O)CC1(CCN(C(=O)c3cc4c(-c5cccc(C(=O)O)c5)ncnc4[nH]3)CC1)C2 [Example 36, 3-{6-[(1-isopropyl-7-oxo-1,4,6,7-tetrahydro-1′H-spiro[indazole-5,4′-piperidin]-1′-yl)carbonyl]-7H-pyrrolo[2,3-d]pyrimidin-4-yl}benzoic acid]",7.35,7.53
"CC(C)n1ncc2c1C(=O)CC1(CCN(C(=O)c3cc(-c4ccc(C(=O)O)cc4)c4cc[nH]c4c3)CC1)C2 [Example 37, 4-{6-[(1-isopropyl-7-oxo-1,4,6,7-tetrahydro-1′H-spiro[indazole-5,4′-piperidin]-1′-yl)carbonyl]-1H-indol-4-yl}benzoic acid]",8.18,8.49
"CC(C)n1ncc2c1C(=O)CC1(CCN(C(=O)c3cc4c(-c5ccc(C(=O)O)cc5)cncc4[nH]3)CC1)C2 [Example 38, 4-{2-[(1-isopropyl-7-oxo-1,4,6,7-tetrahydro-1′H-spiro[indazole-5,4′-piperidin]-1′-yl)carbonyl]-1H-pyrrolo[2,3-c]pyridin-4-yl}benzoic acid]",7.47,7.70
"CC(C)n1ncc2c1C(=O)CC1(CCN(C(=O)c3cc(-c4cccc(C(=O)O)c4)c4cc[nH]c4c3)CC1)C2 [Example 39, 3-{6-[(1-isopropyl-7-oxo-1,4,6,7-tetrahydro-1′H-spiro[indazole-5,4′-piperidin]-1′-yl)carbonyl]-1H-indol-4-yl}benzoic acid]",7.54,7.53
"CC(C)n1ncc2c1C(=O)CC1(CCN(C(=O)c3cc4c(-c5cccc(C(=O)O)c5)cncc4[nH]3)CC1)C2 [Example 40, 3-{2-[(1-isopropyl-7-oxo-1,4,6,7-tetrahydro-1′H-spiro[indazole-5,4′-piperidin]-1′-yl)carbonyl]-1H-pyrrolo[2,3-c]pyridin-4-yl}benzoic acid]",7.99,8.21
"CC(C)n1ncc2c1C(=O)CC1(CCN(C(=O)c3cc4ccc(-c5cccc(C(=O)O)c5)cc4[nH]3)CC1)C2 [Example 41, 3-{2-[(1-isopropyl-7-oxo-1,4,6,7-tetrahydro-1′H-spiro[indazole-5,4′-piperidin]-1′-yl)carbonyl]-1H-indol-6-yl}benzoic acid]",8.07,7.82
"CC(C)n1ncc2c1C(=O)CC1(CCN(C(=O)c3ccc(-c4ccc(C(=O)O)cc4)nc3NCC(F)(F)F)CC1)C2 [Example 42, 4-{5-[(1-isopropyl-7-oxo-1,4,6,7-tetrahydro-1′H-spiro[indazole-5,4′-piperidin]-1′-yl)carbonyl]-6-[(2,2,2-trifluoroethyl)amino]pyridin-2-yl}benzoic acid]",7.40,7.52
"CNc1ncc(-c2cccc(C(=O)O)c2)cc1C(=O)N1CCC2(CC1)CC(=O)c1c(cnn1C(C)C)C2 [Example 43, 3-{5-[(1-isopropyl-7-oxo-1,4,6,7-tetrahydro-1′H-spiro[indazole-5,4′-piperidin]-1′-yl)carbonyl]-6-(methylamino)pyridin-3-yl}benzoic acid]",7.01,6.88
"CNc1ncc(-c2ccc(C(=O)O)cc2)cc1C(=O)N1CCC2(CC1)CC(=O)c1c(cnn1C(C)C)C2 [Example 44, 4-{5-[(1-isopropyl-7-oxo-1,4,6,7-tetrahydro-1′H-spiro[indazole-5,4′-piperidin]-1′-yl)carbonyl]-6-(methylamino)pyridin-3-yl}benzoic acid]",7.46,7.44
"CC(C)n1ncc2c1C(=O)CC1(CCN(C(=O)c3nc4cc(-c5ccc(C(=O)O)cc5)ccc4[nH]3)CC1)C2 [Example 46, 4-{2-[(1-isopropyl-7-oxo-1,4,6,7-tetrahydro-1′H-spiro[indazole-5,4′-piperidin]-1′-yl)carbonyl]-1H-benzimidazol-5-yl}benzoic acid]",7.94,7.80
"CC(C)n1ncc2c1C(=O)CC1(CCN(C(=O)c3nc4cc(-c5cccc(C(=O)O)c5)ccc4[nH]3)CC1)C2 [Example 47, 3-{2-[(1-isopropyl-7-oxo-1,4,6,7-tetrahydro-1′H-spiro[indazole-5,4′-piperidin]-1′-yl)carbonyl]-1H-benzimidazol-5-yl}benzoic acid]",7.49,7.59
"CC(C)n1ncc2c1C(=O)CC1(CCN(C(=O)c3ccc(-c4cccc(-c5nnn[nH]5)c4)cc3)CC1)C2 [Example 48, 1-isopropyl-1′-{[3′-(1H-tetrazol-5-yl)biphenyl-4-yl]carbonyl}-1,4-dihydrospiro[indazole-5,4′-piperidin]-7(6H)-one]",7.23,7.55
"CC(C)(C)n1ncc2c1C(=O)CC1(CCN(C(=O)c3ccc(-c4cccc(-c5nnn[nH]5)c4)cc3)CC1)C2 [Example 49, 1-tert-butyl-1′-{[3′-(1H-tetrazol-5-yl)biphenyl-4-yl]carbonyl}-1,4-dihydrospiro[indazole-5,4′-piperidin]-7(6H)-one]",7.26,7.61
